In US20070191422A1 (priority 2003, published 2007):

Target: α7 nAChR subtype (Rattus norvegicus, UniProt Q05941)
Assay type: binding

Chain of α7 nAChR subtype (Q05941 23-502 limits assumed): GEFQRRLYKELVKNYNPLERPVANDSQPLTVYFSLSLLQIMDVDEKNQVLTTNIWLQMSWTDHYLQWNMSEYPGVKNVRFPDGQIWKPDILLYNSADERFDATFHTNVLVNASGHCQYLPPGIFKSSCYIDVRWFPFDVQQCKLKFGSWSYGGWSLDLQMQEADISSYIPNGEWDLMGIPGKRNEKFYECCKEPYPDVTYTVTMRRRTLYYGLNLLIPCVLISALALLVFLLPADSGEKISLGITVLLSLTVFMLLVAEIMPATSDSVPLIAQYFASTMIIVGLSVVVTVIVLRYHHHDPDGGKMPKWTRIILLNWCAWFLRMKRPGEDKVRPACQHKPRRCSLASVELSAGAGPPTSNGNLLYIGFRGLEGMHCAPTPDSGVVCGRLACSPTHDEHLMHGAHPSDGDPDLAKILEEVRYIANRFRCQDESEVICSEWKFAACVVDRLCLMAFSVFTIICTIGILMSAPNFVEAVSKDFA

Q: With ^125I-α—Bungarotoxin [^125I-α-BTX] as the substance, how does the Kd read?
A: 1.67 nM
